Patent US20140235630A1, “COMPOSITIONS AND METHODS FOR THE TREATMENT OF PROLIFERATIVE DISEASES” (Beth Israel Deaconess Medical Center, Inc., priority 2011, published 2014)

Key:
HCC1937 cells = test: DNA damage response immunoblots with or without ionizing radiation (10 Gy); assay type: cell-based, human
Description: FIG. 5A are immunoblots showing the effects of Compound A, ATM inhibitor KU-55933, and their combination on the DNA damage response. HCC1937 were treated for 18 hours with Compound A at 2.5 μM, KU55933 at 10 μM, or their combination, subjected to ionizing irradiation with 10 Gy or mock, lysed 6 hours later, and subjected to immunoblotting. […] Immunoblots were performed using the Nupage System (Invitrogen). The protein concentration was determined using Bradford reagent (Biorad). A total of 20 μg of protein were loaded, except for PAR, Phospho ATM and Phospho DNA-PK/PRKDC western blots, where 40 μg were loaded. Tumor tissue lysates were prepared similarly with the exception of tissue homogenization by using an electric homogenizer for 30 secs after addition of the lysis buffer. Primary antibodies used for western blotting were total AKT (9272), Cleaved […] 3 (9661), total ERK (4695), Phospho AKT Ser473 (4058), Phospho ERK Thr202/Tyr204 (9106), Phospho-Histone H2AX Ser139 (2577), PTEN (9559) from Cell Signaling. Phospho ATM […] (2152-1), Phospho DNA-PK/PRKDC […] (3892-1) from Epitomics, Inc. CD31 (ab28364), Actin (ab6276), INPP4B (ab81269) from Abcam; pADPr (sc56198) from Santacruz Biotechnology; and Ki-67 (RM-9106) was purchased from Thermo Scientific.

[1] = Intratumoral Compound A concentration by LC/MS/MS; assay type: in vivo, mouse; settings: 3 hours after last dose; Compound A 30 mg/kg/day, alone or with Compound B 50 mg/kg/day
Description: FIG. 6F is a graph showing the intratumoral Compound A concentrations as assessed by mass spectrometry of tumor tissues harvested from animals 3 hours after last treatment with Compound A (30 mg/kg/day), Compound B (50 mg/kg/day), or their combination.
Metabolites from 100 mg of mouse tumor samples were extracted using 80% methanol according to Yuan et al. (Nat. Protoc., 7: 872-881, 2012) 10 μL were injected and analyzed using a 5500 QTRAP hybrid triple quadrupole mass spectrometer (AB/SCIEX) coupled to a Prominence UFLC HPLC system (Shimadzu) via selected reaction monitoring (SRM) for the Q1/Q3 transition of 410.8/367.0 for 5-(2,6-dimorpholinopyrimidin-4-yl)-4-(trifluoromethyl)pyridin-2-amine (Compound A). ESI voltage was +4900V in positive ion mode using a dwell time of 4 msec and collision energy of 45. Approximately 15 data points were obtained for Compound A per LC/MS/MS experiment. Samples were delivered to the MS via hydrophilic interaction chromatography (HILIC) using a 4.6 mm i.d×10 cm Amide Xbridge column (Waters) at 350 μL/min. Gradients were run starting from 85% buffer B (HPLC grade acetonitrile) to 42% B from 0-5 minutes; 42% B to 0% B from 5-16 minutes; 0% B was held from 16-24 minutes; 0% B to 85% B from 24-25 minutes; 85% B was held for 7 minutes to re-equilibrate the column. Compound A eluted at approximately 3.50 min. […]

[2] = system: tumor tissue of MMTV-CreBRCA1^f/fp53+/− mice; test: Immunohistochemistry / immunoblot of tumor tissue for γH2AX, Ki67, p-ERK; parameters: species or system mouse; settings: in vivo treated tumors
Description: FIG. 4B are immunohistochemical images of pre-treatment biopsies and post-Compound A treatment tumor tissues with antibodies against p-ERK, Ki67, and γH2AX showing an in vivo increase of γH2AX-positive cells after treatment with Compound A and proliferative activity at the “pushing margin.” Tumor-bearing mice were subjected to a pre-treatment biopsy and then treated with Compound A at 50 mg/kg/day. FIG. 6E are immunoblots with antibodies against actin, p-AKT, and γH2AX of tumor tissues harvested from animals 3 hours after last treatment with Compound A (30 mg/kg/day), Compound B (50 mg/kg/day), or their combination. FIG. 8A are immunohistochemical images of tumor tissues obtained from tumor-bearing […] pre-treatment (left column of images), at Day 10 of treatment (middle column of images), and post-treatment tissue at the time of progression (right column of images) following treatment with a combination of Compound A and Compound B. FIG. 8B is a graph of Ki67 (right bar graph in each treatment group) and γH2AX (left bar graph in each treatment group) levels in tumor biopsies in pre-treatment, on-treatment, and post-treatment at the time of progression groups. Ki67 and γH2AX were scored by counting and averaging the number of positive nuclei per high-power field (HPF). […] The protein concentration was determined using Bradford reagent (Biorad). […]

Nc1cc(C(F)(F)F)c(-c2cc(N3CCOCC3)nc(N3CCOCC3)n2)cn1 [Compound A, 5-(2,6-dimorpholinopyrimidin-4-yl)-4-(trifluoromethyl)pyridin-2-amine]
H2AX phosphorylation in response to ionizing radiation (HCC1937 cells; 18 hours pre-treatment, 10 Gy, lysed 6 hours later): prominent augmentation
auto-phosphorylation of DNA-PK (HCC1937 cells; Compound A 2.5 μM, 18 hours): strong increase
PAR accumulation (HCC1937 cells; Compound A 2.5 μM, KU55933 10 μM): increased
Rad51 accumulation in response to ionizing radiation (HCC1937 cells; pre-treatment, 10 Gy): failure to increase Rad51
Compound A levels in tumor tissues [1]: consistently in the micro-molar range
percentage of tumor cells that express γH2AX / γH2AX in tumor lysates [2]: substantial increase
